{"source": "patent US20040191287A1", "about": "“Fumigation process for stored food grains” (priority 2003, published 2004)", "key": {"[1]": {"system": "T. castaneum mixed-age cultures", "experiment": "Fumigation in 125 litre plastic drums with 100 kg wheat, with/without perforated tubing (Example 6)", "assay_type": "in vivo, Tribolium castaneum", "conditions": "without perforated tubing, 200 mg/liter, 26 ± 2° C., 125 liter drum; for mortality at 200 µg/mL: Tribolium castaneum, 72 h, read-out: % mortality based on survivors in untreated controls; for Insect Survivors: 72 hours", "experimental": "In another set of experiments, fumigations were carried out in the plastic drums with 100 kg of wheat under similar conditions mentioned above except that there was no perforated tubing inserted into the grain and the total dose of allyl acetate (27 ml of liquid) was dispensed at one location, that is, on the top layer of the grain. In both sets of experiments, there were 3 replicates for control and fumigated batches.\nInsect mortality in fumigated batches was determined by taking into consideration of survivors in respective controls as 100%."}, "[2]": {"system": "S. oryzae mixed-age cultures", "conditions": "200 mg/liter, 26 ± 2° C., 19.5 liter tin container with 12 kg of wheat", "procedure": "Further fumigation tests were carried out with allyl acetate at 200 mg/litre and with three different exposure periods of 24, 48 and 72 hours in 19.5 litre tin containers filled with 12 kg of wheat. Mixed- age cultures of R. dominica, S. oryzae and T. castaneum were used as the test insects.\nMixed-age cultures of S. oryzae and R. dominica were obtained by allowing 300 adults of the individual species to breed in about 1 kg of wheat in a 2-liter glass jar. To obtain mixed- age culture of T. castaneum about 300 adults were released into 1 kg of whole-wheat flour plus 5% dried yeast in a 2-litre glass jar. The insect culture jars were kept under the rearing temperature conditions i.e., 25±1° C. for S. oryzae and T. castaneum and 30±1° C. for R. dominica. The infested grain/flour after an incubation period of 7 weeks was used for the experiment. The cultures were weighed into 50 gm aliquots in 21 cm×14 cm size cloth bags. One set of three test insect bags comprising R. dominica, S. oryzae and T. castaneum were kept at the bottom of the container before filling the grain. […] Another set of three-test insect bags was kept on the top layer of grains. The grain-filled containers were, then, fumigated with allyl acetate for 24, 48 and 72 hours at 26±2° C. The commodity was treated with allyl acetate at the dosage of 200 mg/litre. Required quantity of allyl acetate was measured in 10 and 25 ml measuring cylinder and quickly poured on to 5 gm of absorbent cotton wool kept over the grain layer in the tin container. Immediately after dosing, the container was closed with the lid tightly and sealed along the rim with adhesive tape. At the end of the exposure period, the lid was removed to aerate the commodity and the test insect bags were retrieved and the contents transferred to 300 ml capacity glass bottles. Insect survivors in the samples were recorded at weekly intervals for 8 weeks. Mortality in fumigated batches was calculated based on emergence/survivors in controls."}, "[3]": {"system": "Cryptolestes sp.", "experiment": "LD 50 / LD 99 of allyl acetate to adults, probit analysis (Example 2)", "assay_type": "in vivo", "conditions": "24-hour exposure at 26 ± 2° C.", "experimental": "(§1) Assays with allyl acetate against the adults of four species of stored grain insects namely S. oryzae, R. dominica, T. castaneum and Cryptolestes sp. were carried out to determine LD 50 and LD 99 doses. […] Cryptolestes sp. was reared on wheat feed. […] The insects were exposed to different doses of allyl acetate for 24 hour in 0.85-liter desiccators to yield 20-100% mortality. There were 6 replicates for each dose along with equal number of untreated control. […] Mortality of treated insects was assessed at the end of 14 days and it was corrected for natural control mortality. The data for the individual species were subjected to probit analysis following the method of Finney (1971) to arrive at LD 50 and LD 99 values."}, "[4]": {"system": "Rhyzopertha dominica", "experiment": "LD 50 / LD 99 of allyl acetate to adults, probit analysis (Example 2)", "assay_type": "in vivo", "conditions": "R. dominica adults, 24-hour exposure at 26 ± 2° C.", "experimental": "as §1"}, "[5]": {"system": "Sitophilus oryzae", "experiment": "LD 50 / LD 99 of allyl acetate to adults, probit analysis (Example 2)", "assay_type": "in vivo", "conditions": "S. oryzae adults, 24-hour exposure at 26 ± 2° C.", "experimental": "as §1"}, "[6]": {"system": "Tribolium castaneum", "experiment": "LD 50 / LD 99 of allyl acetate to adults, probit analysis (Example 2)", "assay_type": "in vivo", "conditions": "T. castaneum adults, 24-hour exposure at 26 ± 2° C.", "experimental": "as §1"}, "[7]": {"system": "T. castaneum mixed-age cultures", "experiment": "Fumigation in 125 litre plastic drums with 100 kg wheat, with/without perforated tubing (Example 6)", "assay_type": "in vivo, Tribolium castaneum", "conditions": "for Insect Survivors / mortality at 200 µg/mL: T. castaneum, with perforated tubing, 200 mg/liter, 72 hours, 26 ± 2° C., 125 liter drum, 100 kg wheat; for mortality at 200 µg/mL: 72 h, read-out: % mortality based on survivors in untreated controls"}, "[8]": {"conditions": "cited from earlier work"}, "[9]": {"system": "rat", "conditions": "1 hr; cited from earlier work"}, "[10]": {"system": "R. dominica mixed-age cultures", "conditions": "72 hours at 26±2° C., 19.5 liter tin container with 12 kg wheat", "source_text": "Fumigation experiments with allyl acetate have been conducted in 19.5 litre capacity tin containers with mixed- age cultures of R. dominica, S. oryzae and T. castaneum as the test insects.\nMixed-age cultures of S. oryzae and R. dominica were obtained by allowing 300 adults of the individual species to breed in about 1 kg of wheat in a 2-liter glass jar. To obtain mixed- age culture of T. castaneum about 300 adults were released into 1 kg of whole-wheat flour plus 5% dried yeast in a 2-litre glass jar. The insect culture jars were kept under the rearing temperature conditions i.e., 25±1° C. for S. oryzae and T. castaneum and 30±1° C. for R. dominica.\nThe infested grain/flour after an incubation period of 7 weeks was used for the experiment. The cultures were weighed into 50 gm aliquots in 21 cm×14 cm size cloth bags. One set of three test insect bags comprising R. dominica, S. oryzae and T. castaneum were kept at the bottom of the container before filling the grain.\nAnother set of three-test insect bags was kept on the top layer of grains. The grain-filled containers were, then, fumigated with allyl acetate for 72 hours at 26±2° C. There were 6 doses ranging from 100 to 800 mg/litre with 3 replicates/dosage along with untreated controls. Required quantity of allyl acetate was measured in 10 and 25 ml measuring cylinder and quickly poured on to 5 gm of absorbent cotton wool kept over the grain layer in the tin container.\nImmediately after dosing, the container was closed with the lid tightly and sealed along the rim with adhesive tape. At the end of 72 hour, the lid was removed to aerate the commodity and the test insect bags were retrieved and the contents transferred to 300 ml capacity glass bottles.\nInsect survivors in the samples were recorded at weekly intervals for 8 weeks. Mortality in fumigated batches was calculated based on emergence/survivors in controls."}, "[11]": {"conditions": "cited from earlier work", "remark": "listed apart in the source"}, "[12]": {"system": "Rhyzopertha dominica", "experiment": "whole plant or invertebrate", "experimental": "(§2) Cryptolestes sp. was reared on wheat feed. S. oryzae, Cryptolestes sp. and T. castaneum cultures were maintained at 25±1° C. and 70% RH whereas R. dominica cultures were maintained at 30±1° C. and 70% RH. From the established cultures, 2-week-old adults were taken and counted into 10 cm×2.3 cm size test tubes at 50 per replicate. The mouth of the tube was closed with a cloth piece held by small rubber ring. The insects were exposed to a range of doses (10 to 100 mg/litre) of esters for 24 hours in 0.85-liter desicators at the laboratory temperature of 26±2° C. Pure grade esters including allyl acetate, butyl acetate, ethyl acetoacetate, isopropyl acetate and propyl acetate were procured from Merck India Ltd. In each desiccator a 9 cm diameter Whatman No. 1 filter circle was placed; the filter circle acted as evaporating surface for the injected liquids (esters). Required quantity of the ester was drawn from the bottles using 10, 25 or 50 micro litre liquid syringe. There were 6 replicates for each dose with equal number of replicates for untreated control. The exposure period in all cases was 24 hours. […] Insect mortality was assessed after 14 days. Corrected mortality was arrived at based on Abbott's formula (1925)."}, "[13]": {"system": "Sitophilus oryzae", "experiment": "whole plant or invertebrate", "experimental": "as §2"}, "[14]": {"system": "Tribolium castaneum", "experiment": "whole plant or invertebrate", "experimental": "as §2"}, "[15]": {"conditions": "test insect bag at bottom layer"}, "[16]": {"conditions": "test insect bag at middle layer"}, "[17]": {"conditions": "Rhyzopertha dominica, read-out: Mortality (%) (Mean ± SD)"}, "[18]": {"conditions": "Sitophilus oryzae, read-out: Mortality (%) (Mean ± SD)"}, "[19]": {"conditions": "Tribolium castaneum, read-out: Mortality (%) (Mean ± SD)"}}, "note": "Read-outs that look alike come from different tables or passages of the source.", "data": [{"compound": "C=CCOC(C)=O", "note": "[allyl acetate]", "values": [{"measurement": "mortality at 200 µg/mL", "setting": "[1]; bottom layer", "result": 0, "unit": "%"}, {"measurement": "mortality at 200 µg/mL", "setting": "[1]; middle layer", "result": 100, "unit": "%"}, {"measurement": "mortality at 200 µg/mL", "setting": "[1]; top layer", "result": 99.4, "unit": "%"}, {"measurement": "Insect Survivors", "setting": "[1]; [15]", "result": 39.00}, {"measurement": "Insect Survivors", "setting": "[1]; [16]", "result": 0}, {"measurement": "Insect Survivors", "setting": "[1]; test insect bag at top layer", "result": 0.33}, {"measurement": "% mortality based on survivors in controls", "setting": "[2]; exposure period 24 hour", "result": "(99.9) %"}, {"measurement": "No. of survivors from 50 g lots of mixed-age cultures following treatment", "setting": "[2]; exposure period 24 hour", "result": 0.33}, {"measurement": "% mortality based on survivors in controls", "setting": "[2]; exposure period 48 hour", "result": "(99.9) %"}, {"measurement": "No. of survivors from 50 g lots of mixed-age cultures following treatment", "setting": "[2]; exposure period 48 hour", "result": 0.33}, {"measurement": "% mortality based on survivors in controls", "setting": "[2]; exposure period 72 hour", "result": "(100) %"}, {"measurement": "No. of survivors from 50 g lots of mixed-age cultures following treatment", "setting": "[2]; exposure period 72 hour", "result": 0}, {"measurement": "LD 99 (mg/Liter)", "setting": "[3]", "result": "5.44 (4.29; 15.6) mg/Liter"}, {"measurement": "LD 50 (mg/Liter)", "setting": "[4]", "result": "1.69 (1.30; 2.02) mg/Liter"}, {"measurement": "LD 99 (mg/Liter)", "setting": "[4]", "result": "7.56 (5.81; 11.67) mg/Liter"}, {"measurement": "LD 50 (mg/Liter)", "setting": "[5]", "result": "4.08 (3.70; 4.42) mg/Liter"}, {"measurement": "LD 99 (mg/Liter)", "setting": "[5]", "result": "12.81 (10.90; 16.15) mg/Liter"}, {"measurement": "LD 50 (mg/Liter)", "setting": "[6]", "result": "6.14 (5.33; 6.80) mg/Liter"}, {"measurement": "LD 99 (mg/Liter)", "setting": "[6]", "result": "11.42 (9.85; 14.92) mg/Liter"}, {"measurement": "Insect Survivors", "setting": "[7]; [15]", "result": 0}, {"measurement": "Insect Survivors", "setting": "[7]; [16]", "result": 0}, {"measurement": "Insect Survivors", "setting": "[7]; test insect bag at top layer", "result": 0}, {"measurement": "mortality at 200 µg/mL", "setting": "[7]; Tribolium castaneum, bottom layer", "result": 100, "unit": "%"}, {"measurement": "mortality at 200 µg/mL", "setting": "[7]; Tribolium castaneum, middle layer", "result": 100, "unit": "%"}, {"measurement": "mortality at 200 µg/mL", "setting": "[7]; Tribolium castaneum, top layer", "result": 100, "unit": "%"}, {"measurement": "dosage for 100% kill of all stages", "setting": "[7]; Tribolium castaneum, all stages, preferred exposure period 72 hours", "result": "200 mg per litre of space"}, {"measurement": "Vapour pressure at 27° C. (mm Hg)", "setting": "[8]; 27° C.", "result": 6, "unit": "mm Hg"}, {"measurement": "Solubility in water", "setting": "[8]", "result": "Insoluble"}, {"measurement": "LC 50 rat inhalation", "setting": "[9]", "result": "LC 50 rat inhalation 1000 ppm/1 hr"}, {"measurement": "% mortality based on survivors in controls", "setting": "[10]; 100 mg/liter", "result": "(100) %"}, {"measurement": "No. of survivors from 50 g lots of mixed-age cultures following treatment", "setting": "[10]; 100 mg/liter", "result": 0}, {"measurement": "% mortality based on survivors in controls", "setting": "[10]; 150 mg/liter", "result": "(100) %"}, {"measurement": "No. of survivors from 50 g lots of mixed-age cultures following treatment", "setting": "[10]; 150 mg/liter", "result": 0}, {"measurement": "% mortality based on survivors in controls", "setting": "[10]; 200 mg/liter", "result": "(100) %"}, {"measurement": "No. of survivors from 50 g lots of mixed-age cultures following treatment", "setting": "[10]; 200 mg/liter", "result": 0}, {"measurement": "% mortality based on survivors in controls", "setting": "[10]; 400 mg/liter", "result": "(100) %"}, {"measurement": "No. of survivors from 50 g lots of mixed-age cultures following treatment", "setting": "[10]; 400 mg/liter", "result": 0}, {"measurement": "% mortality based on survivors in controls", "setting": "[10]; 600 mg/liter", "result": "(100) %"}, {"measurement": "No. of survivors from 50 g lots of mixed-age cultures following treatment", "setting": "[10]; 600 mg/liter", "result": 0}, {"measurement": "% mortality based on survivors in controls", "setting": "[10]; 800 mg/liter", "result": "(100) %"}, {"measurement": "No. of survivors from 50 g lots of mixed-age cultures following treatment", "setting": "[10]; 800 mg/liter", "result": 0}, {"measurement": "Mammalian Toxicity (irritation)", "setting": "[11]; eyes, respiratory system and skin", "result": "Irritating to eyes, respiratory"}, {"measurement": "Mammalian Toxicity", "setting": "[11]; routes of toxicity: inhalation, contact and ingestion", "result": "Toxic by inhalation,"}, {"measurement": "mortality at 10 µg/mL", "setting": "[12]; [17]", "result": 100, "unit": "%"}, {"measurement": "mortality at 20 µg/mL", "setting": "[12]; [17]", "result": 100, "unit": "%"}, {"measurement": "mortality at 30 µg/mL", "setting": "[12]; [17]", "result": 100, "unit": "%"}, {"measurement": "mortality at 50 µg/mL", "setting": "[12]; [17]", "result": 100, "unit": "%"}, {"measurement": "mortality at 100 µg/mL", "setting": "[12]; [17]", "result": 100, "unit": "%"}, {"measurement": "mortality of the adults", "setting": "[12]; in vivo", "result": 100, "unit": "%"}, {"measurement": "mortality at 10 µg/mL", "setting": "[13]; [18]", "result": "92.3 ± 12.7", "unit": "%"}, {"measurement": "mortality at 20 µg/mL", "setting": "[13]; [18]", "result": 100, "unit": "%"}, {"measurement": "mortality at 30 µg/mL", "setting": "[13]; [18]", "result": 100, "unit": "%"}, {"measurement": "mortality at 50 µg/mL", "setting": "[13]; [18]", "result": 100, "unit": "%"}, {"measurement": "mortality at 100 µg/mL", "setting": "[13]; [18]", "result": 100, "unit": "%"}, {"measurement": "mortality of the adults", "setting": "[13]; in vivo", "result": 100, "unit": "%"}, {"measurement": "mortality at 10 µg/mL", "setting": "[14]; [19]", "result": "96 ± 3.7", "unit": "%"}, {"measurement": "mortality at 20 µg/mL", "setting": "[14]; [19]", "result": 100, "unit": "%"}, {"measurement": "mortality at 30 µg/mL", "setting": "[14]; [19]", "result": 100, "unit": "%"}, {"measurement": "mortality at 50 µg/mL", "setting": "[14]; [19]", "result": 100, "unit": "%"}, {"measurement": "mortality at 100 µg/mL", "setting": "[14]; [19]", "result": 100, "unit": "%"}, {"measurement": "mortality of the adults", "setting": "[14]; in vivo", "result": 100, "unit": "%"}]}]}
